# Laboratory results: patent publication US20070098732A1, “Immunologic compounds for prevention, protection, prophylaxis or treatment of immunological disorders, infections and cancer” (Universite De Montreal, priority 2003, published 2007)
# Tested on: EL-4 lymphoma cells
# Test: PDT of EL-4 lymphoma cells with TH9402 and light
# Assay type: cell-based
# Description: The strain of mice B6SJL was used for the evaluation of PDT to induce immuno-protection. In generation of tumor cell lysates, EL-4 cells (American Type Culture Collection, ATCC Accession # TIB-39) were seeded in flasks at 10^6 cells/ml and exposed to 10 μM TH9402 in serum free DMEM without phenol red medium for 40 minutes, followed by exposure to drug-free medium for 90 minutes, then illuminated with a dose of 10J/cm^2. Treated cells were incubated overnight. After incubation, cells and supernatants were collected and spun down. The resulting supernatant was collected, concentrated by vacuum speed using a molecular sieve (centriplus 3000 molecular weight cut-off), and stored frozen at −70° C. until use.
compound,measurement,value
"Br.COC(=O)c1ccccc1-c1c2ccc(=N)c(Br)c-2oc2c(Br)c(N)ccc12 [TH9402, 2′-(6-amino-4,5-dibromo-3-imino-3H-xanthen-9-yl)-benzoic acid methyl ester hydrobromide]",cell death of EL-4 lymphoma cells undergoing PDT,"rapidly proceed to programmed cell death, apoptosis and/or necrosis"
